# Experimental data taken from patent US20130150317A1, “COMPOUNDS FOR THE TREATMENT OF RENAL CELL CARCINOMA” (Myrovlytis Technology Ventures Limited, priority 2010, published 2013).
# Entries after “also recorded” stand apart in the source; their conditions may differ. Where two headings read alike, the source gives them in different places.
# Tests used:
# UOK257-FLCN^+ cells = assay: Clonogenic cell survival assay in UOK257-FLCN^+ cells; type: cell-based, human; conditions: 72 hrs exposure
# Source text: Colonies with over 30 cells were counted.
# UOK257-FLCN^− cells = assay: SRB growth inhibition assay in UOK257-FLCN^− cells; type: cell-based, human; conditions: for GI50: Homo sapiens
# Source text: (§1) Human renal carcinoma of BHD origin cells UOK-257 (UOK-FLCN^−) and FLCN transfected UOK-257 cells UOK-FLCN^+ (Yang et al Cancer Genet Cytogenet. 2008 Jan. 15; 180(2):100-9) were provided by Dr Marston Linehan and Dr. Laura S Schmidt (Urologic Oncology Branch, Centre for Cancer Research, National Cancer Institute, National Institutes of Health, Bethesda, Md. 20892, USA). UOK-257 is the only RCC cell line that has been derived from a patient with BHD and harbours a germline FLCN frameshift mutation (c.1285dupC) (predicted, in the absence of nonsense mediated mRNA decay, to lead to premature protein truncation (p.His429ProfsX27) (Yang et al., Cancer Genet Cytogenet, 2008 Jan. 15; 180(2):100-9). We are not aware of any sporadic RCC cell lines with homozygous FLCN inactivation. FTC-133 cells were purchased from ECACC (Salisbury, United Kingdom). These cells are a non-RCC cell line derived from human thyroid carcinoma. 786-0 cells were available from the author's lab (Clifford et al., Hum Mol Genet. 2001 May 1; 10(10):1029-38). 786-O is a kidney cancer cell line that harbours an inactivating VHL gene mutation (c.311delG p.G104fs*55). All cell lines were cultured in DMEM with supplement of 10% foetal bovine serum except for FTC-133 cells which were incubated in medium with DMEM and Hens (1:1).
# (§2) The sensitivity of the cell lines to drug-induced cell growth inhibition was determined using the sulphorhodamine B assay (SRB) as described by Lu et al., Clin Cancer Res. 2001:7:2114-23. Briefly, adherent exponentially growing cells were seeded into 96-well plates at 3-5×10^3 cells/100 μl/well. […] The absorbance per well was measured at 570 nm on a Victor X3 Multilabel Plate Reader (PerkinElmor, Beaconsfield, United Kingdom).
# GI50 values, defined as the concentration of compounds required to inhibit growth by 50%, were then calculated. The ratio of GI50 value from UOK257-FLCN^+ and UOK257-FLCN^− were calculated and used as an indicator for the sensitivity to FLCN mutant cells.
# [1] = test system: FTC-133 cells transfected with empty vector; assay: SRB growth inhibition in FTC-133 cells, empty vector; type: cell-based, human; conditions: for GI50: Homo sapiens; for differential sensitivity in FTC-133 cells with different levels of FLCN expression (in words): SRB assay
# Source text: as §1, §2
# (§3) A FLCN containing construct was introduced into parental FTC-133 cells and stably transfected cells were selected. SRB growth inhibition assay was carried out in cells transfected with empty vector and low FLCN and high FLCN expression.
# as §3
# [2] = test system: 786-O cells expressing wt VHL; assay: SRB growth inhibition in 786-O cells expressing wt VHL; type: cell-based; conditions: Homo sapiens, 786-0; SRB assay, 72 hours
# Source text: as §1, with “786-O is a kidney cancer cell line that harbours an inactivating VHL gene mutation (c.311delG p.G104fs*55). All cell lines were cultured in DMEM with supplement of 10% foetal bovine serum except for FTC-133 cells which were incubated in medium with DMEM and Hens (1:1).” left out
# The sensitivity of the cell lines to drug-induced cell growth inhibition was determined using the sulphorhodamine B assay (SRB) as described by Lu et al., Clin Cancer Res. 2001:7:2114-23. […] The absorbance per well was measured at 570 nm on a Victor X3 Multilabel Plate Reader (PerkinElmor, Beaconsfield, United Kingdom). […]
# [3] = test system: caspase3/7 activity in UOK257-FLCN^− and UOK257-FLCN^+ cells; assay: Caspase-Glo 3/7 assay in UOK-257 cells with/without FLCN expression; type: cell-based, human
# Protocol: The ability to induce caspase 3/7 activation after exposure to compounds was measured by Caspase-Glo 3/7 Assay (Promega, Southampton, United Kingdom) according to manufacturer's instruction. The cells were seeded and dosed as described in growth inhibition assay. At the end of incubation, 70 μl of medium was removed and 30 μl of assay reagent was added to the remaining medium. Additional one hour incubation with shaking was carried out at room temperature. The resultant luminescent light was measured in a Victor X3 Multilabel Plate Reader (PerkinElmer, Beaconsfield, United Kingdom). Cell viability after compound exposure was determined by CellTiter-Blue Cell Viability Assay (Promega, Southampton, the United Kingdom) according to manufacturer's instruction. At the end of drug treatment, 20 μl of reagent was added to the medium in 96 wells and the cells were incubated for additional 4 hours. The cell viability was measured by fluorescence with a 570 nm excitation and 590 nm emission set in a Victor X3 Multilabel Plate Reader (PerkinElmer, Beaconsfield, United Kingdom).
# After 48 hrs incubation, with three concentration ranges for each drug, the capase3/7 activity was detected by amount of luminescence for each cell line. The ratio of caspase3/7 activity from UOK257-FLCN^− and UOK257-FLCN^+ were calculated and used as indicators for the ability of the individual compound to induce caspase3/7 activity to FLCN mutant cells.
# These ratios were calculated and used as indicators for the sensitivity to mutant FLCN cells.
# UOK-FLCN^+ cells = conditions: 4×GI50 mithramycin, no rapamycin
# Protocol: At the end of the time course, media was carefully removed and cells were fixed in 85% ice-cold ethanol. After removal of ethanol, cells were incubated in the dark at 37° C. for 20 minutes in PBS buffers containing 0.1% Triton X-100, 100 mg/mL RNase A and 10 mg/mL Propidium iodide (PI). The 96-well plates were subsequently scanned using the Acumen eX3 cytometer (TTP LabTech).
# [4] = test system: caspase3 in UOK257-FLCN^− cells; assay: Western blot of cellular caspase3 protein after mithramycin; type: cell-based, human; conditions: mithramycin 25, 50, 100, 200 nM, 48 hours
# Protocol: Cellular protein expression in UOK Cells with/without FLCN expression in response to drug exposure was determined using total cell extracts at 48 h after treatment, according to standard procedures. Protein concentration was determined using DC protein assay kit according to the manufacturer's instructions (Bio-Rad Laboratories Ltd, Hertfordshire, United Kingdom). Twenty […] of protein from each sample was electrophoresed on 12.5% (w/v) SDS-PAGE gels and electroblotted on to nitrocellulose membrane (Amersham Pharmacia Biotech UK Ltd., Buckinghamshire, United Kingdom). Antibody against FLCN (a gift from Prof. Arnim Pause, Rosalind and Morris Goodman Cancer Centre Montreal, Canada), caspase3 (Cell Signalling Technology, Hertfordshire, United Kingdom), and actin (Sigma-Aldrich Company Ltd., Dorset, United Kingdom) were used. The signal was detected using the enhanced chemiluminescence (ECL+Plus, Amersham) system after addition of anti-mouse IgG-HRP conjugate (DAKO, Ely, United Kingdom).
structure (smiles),measurement,setting,value
"CO[C@H](C(=O)[C@@H](O)[C@@H](C)O)C1Cc2cc3cc(OC4CC(OC5CC(O)C(O)C(C)O5)C(O)C(C)O4)c(C)c(O)c3c(O)c2C(=O)[C@H]1OC1CC(OC2CC(OC3CC(C)(O)C(O)C(C)O3)C(O)C(C)O2)C(O)C(C)O1 (stereo partly shown) [mithramycin, Mithramycin]","cell survival (clonogenic), UOK257-FLCN^+ cells",UOK257-FLCN^+ cells; 200 nM,more than 85%
same,"cells able to form colonies, UOK257-FLCN^+ cells",UOK257-FLCN^+ cells; 500 nM,more than 60%
same,"cells survived (clonogenic), UOK257-FLCN^+ cells",UOK257-FLCN^+ cells; 5000 nM,more than 4%
same,GI50,"UOK257-FLCN^− cells; 72 h, read-out: GI50 nM in UOK-FLCN^−",64.2 ± 7.9 nM
same,GI50,"UOK257-FLCN^− cells; 72 h, read-out: GI50 in UOK257-FLCN^− cells, rapamycin combination experiment",69 ± 10 nM
same,GI50,UOK257-FLCN^− cells; read-out: GI50 in FLCN-null UOK257 cells,64.2 ± 7.9 nM
same,GI50 Ratio of UOK-FLCN^+/UOK-FLCN^−,UOK257-FLCN^− cells; ratio>1 = more inhibitory to FLCN^− cells,9.88
same,GI50,"[1]; FTC-133, 72 h, read-out: GI50 in FTC-133 cells, empty vector",59.3 ± 8.9 nM
same,GI50,"[1]; FTC-133, read-out: GI50 in FTC-133 cells, empty vector",59.3 ± 8.9 nM
same,differential sensitivity in FTC-133 cells with different levels of FLCN expression (in words),[1],no apparent differential mithramycin sensitivity
same,differential sensitivity in FTC-133 cells with different levels of FLCN expression (in words),[1]; listed as Mithramycin,does not show genotypic selective growth inhibitory activity
same,GI50,[2],299 ± 17 nM
same,"induction of caspase 3/7 activity, FLCN-null versus FLCN-wild type cells (in words)",[3],preferentially induced caspase 3/7 activity in UOK257 FLCN-null cells in a dose dependent manner; also recorded: Differential ability to induce caspase 3/7 activity
same,"induction of caspase 3/7 activity, FLCN-null versus FLCN-wild type cells (in words)",[3]; listed as Mithramycin,preferentially induces caspase 3/7 activity in FLCN-null cells in a dose dependent manner
same,increase in S and G2-M phases,UOK-FLCN^+ cells,15%
same,active forms of cleaved caspase3 (Western blot),[4],"found at 100 and 200 nM, but not in low concentrations of mithramycin (25 and 50 nM)"
